Data from PubChem BioAssay AID2060600 (Molecular Pharmacology Branch, DTP, NCI, 2025).
Several values for one entry are separate records, joined by “and”; a condition that tells them apart may be missing. Equal entries are not always repeated. Values belong to the molecule of their own block, whether it stands above or below them.

Test system: 996289-038-R-J1-PDC complex spheroid viability
Assay: Anticancer human tumor 996289-038-R-J1-PDC patient-derived colon adenocarcinoma cell line growth inhibition [CLK]
Conditions: for viability, T/C: stronger effect = lower value
From the text: A high-throughput screen of multi-cell type tumor spheroids was designed to identify active combinations of […] and targeted small molecules. Complex spheroids include a stromal component modeled by human endothelial cells (HUVEC) and fibroblasts modeled by human mesenchymal stem cells (MSCs). The concentration ranges selected for each drug and investigational agent were based upon clinically achievable concentrations if the clinical Cmax of the agent was known.
Compounds. The drugs and investigational agents: cirtuvivint (SM08502; NSC835563), CC-671 (NSC850746), vemurafenib (NSC761431), tapotoclax (NSC804041), sotorasib (NSC818433), adagrasib (NSC831453), MRTX-1133 (NSC836407), BAY2416964 (NSC825713), copanlisib (NSC816437), inavolisib (NSC800729), abemaciclib (NSC768073), osimertinib (NSC779217), entinostat (NSC756642), eltanexor (KPT-8602, NSC794443), venetoclax (NSC766270), ceralasertib (NSC777638), bortezomib (NSC756655), olaparib (NSC753686), talazoparib (NSC767125), alisertib (NSC759677), peposertib (NSC802822), gemcitabine (NSC613327), 5-fluorouracil (NSC19893), SN-38 (NSC673596), oxaliplatin (NSC266046), paclitaxel (NSC125973), and doxorubicin (NSC123127), were obtained from the National Cancer Institute (NCI) Developmental Therapeutics Program Chemical Repository. The FDA-approved anticancer drug set is available from the Developmental Therapeutics Program at https://dtp.cancer.gov/organization/dscb/obtaining/available plates.htm. […] The stock solutions were prepared in dimethyl sulfoxide (DMSO, Sigma-Aldrich, St. Louis, MO, cat. D2650), except for the platinum complexes which were prepared in saline (Quality Biological, Gaithersburg, MD, cat. 114-055-101), at 800-fold the tested concentration and stored at -70 degrees C prior to their use. All drugs and investigational agents were tested over a range starting from a high concentration at or near the clinical Cmax and decreasing in half-log increments. If the clinical Cmax for an agent had not been determined, the highest concentration tested was 10 microM.
Cell Culture. All cells were maintained in an incubator at 37 degrees C and 5% CO2 with 95% humidity. The PDC lines were cultured according to standard operating procedures established by the NCI PDMR. Briefly, all PDCs were thawed and cultured in Matrigel-coated flasks prepared with a working solution of 1X Ham's F-12 nutrient mix, without supplementation (Invitrogen, Waltham, MA, cat. 11765054), 100 U/mL penicillin-streptomycin (Invitrogen, cat. 15140122), and 2.5% Matrigel (Corning Inc., Corning, NY, cat. 354248) for the first three passages. The 947758-054-R-J2-PDC line was cultured in 6B/Colon 1A media, which includes advanced DMEM/F-12 (Thermo Fisher Scientific, cat. 12634028), 10 mM HEPES (Thermo Fisher Scientific, cat. 15630080), 1X GlutaMAX supplement (Thermo Fisher Scientific, cat. 35050061), 0.1 mg/mL primocin (InvivoGen, cat. ant-pm-2), 10% defined fetal bovine serum, heat inactivated (HyClone Laboratories Inc., cat. SH30070.03HI), 1.25 mM N-Acetyl-L-cysteine (Sigma-Aldrich, cat. A9165), 10 mM nicotinamide (Sigma-Aldrich, cat. N0636), 1X B-27 supplement (Thermo Fisher Scientific, cat. 17504044), 1X N-2 supplement (Thermo Fisher Scientific, cat. 17502048), and 10 microM Y-27632 dihydrochloride (Tocris Bioscience, cat. 1254). The 876862-298-R-J1-PDC was cultured in 6E media, which includes all 6B/Colon 1A media components plus 50% L-WRN conditioned media (ATCC, cat. CRL-3276), 50 ng/mL recombinant human EGF recombinant protein (hEGF; Thermo Fisher Scientific, cat. PHG0311), 10 ng/mL recombinant human fibroblast growth factor 10 (hGFG-10; PeproTech, cat. 100-26), 1 ng/mL recombinant human fibroblast growth factor 2 (hFGF-2; PeproTech, cat. 100-18B), and 1 µM prostaglandin E2 (PGE2; Tocris, cat. 2296). The 227483-062-R1-J1-PDC line was cultured in Panc media, containing all 6E components except hFGF-2, with the addition of 500 nM SB-431542 (Selleckchem, cat. S1067) and 10 nM gastrin (Tocris, cat. 3006). […]
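Also: spheroids exposed to the agents for 7 days before readout.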

IC50 (curve of compound): > 10 µM
Compound: CC(=O)O[C@H]1C(=O)[C@@]2(C)[C@H]([C@H](OC(=O)c3ccccc3)[C@]3(O)C[C@H](OC(=O)[C@H](O)[C@@H](NC(=O)c4ccccc4)c4ccccc4)C(C)=C1C3(C)C)[C@]1(OC(C)=O)CO[C@@H]1C[C@@H]2O
viability, T/C (compound 0.0316 µM): 94.2% and 106%
viability, T/C (compound 0.1 µM): 85.8% and 89.7%
viability, T/C (compound 0.316 µM): 68.7% and 72.4%
viability, T/C (compound 1 µM): 59.8% and 63.7%
viability, T/C (compound 3.16 µM): 58.6% and 73%
viability, T/C (compound 10 µM): 61.5% and 67.2%

IC50 (curve of compound): > 10 µM
Compound: COc1ccc([C@@H](O)c2cc(-c3ncnc4cc(N5CCOCC5)ccc34)c(F)cc2Cl)nn1
viability, T/C (compound 0.0316 µM): 102%
viability, T/C (compound 0.1 µM): 92.7% and 88.9%
viability, T/C (compound 0.316 µM): 101% and 90.7%
viability, T/C (compound 1 µM): 93.3% and 87.7%
viability, T/C (compound 3.16 µM): 77.5% and 79.5%
viability, T/C (compound 10 µM): 50.1% and 52.1%

IC50 (curve of compound): 2.65 µM and 3.33 µM
Compound: COc1cccc2c1C(=O)c1c(O)c3c(c(O)c1C2=O)CC(O)(C(=O)CO)CC3OC1CC(N)C(O)C(C)O1 (stereo not drawn)
viability, T/C (compound 0.0316 µM): 100% and 103%
viability, T/C (compound 0.1 µM): 87.1% and 86.2%
viability, T/C (compound 0.316 µM): 76.5% and 79.6%
viability, T/C (compound 1 µM): 59.4% and 62.6%
viability, T/C (compound 3.16 µM): 49% and 51.9%
viability, T/C (compound 10 µM): 35.5% and 36.7%

Compound: C=CC(=O)N1CCN(c2nc(=O)n(-c3c(C)ccnc3C(C)C)c3nc(-c4c(O)cccc4F)c(F)cc23)C(C)C1 (stereo not drawn) + CN1CCN(c2cc(C(=O)Nc3cc4cc(-c5cnn(C)c5)ccc4cn3)ccn2)CC1
IC50 (curve of first compound, second compound 0.0316 µM): > 10 µM
IC50 (curve of first compound, second compound 0.1 µM): > 10 µM
IC50 (curve of first compound, second compound 0.316 µM): > 10 µM
IC50 (curve of first compound, second compound 1 µM): < 0.0316 µM
IC50 (curve of first compound, second compound 3.16 µM): < 0.0316 µM
IC50 (curve of first compound, second compound 10 µM): < 0.0316 µM
viability, T/C (second compound 0.0316 µM, first compound 0.0316 µM): 112%
viability, T/C (second compound 0.0316 µM, first compound 0.1 µM): 111%
viability, T/C (second compound 0.0316 µM, first compound 0.316 µM): 111%
viability, T/C (second compound 0.0316 µM, first compound 1 µM): 104%
viability, T/C (second compound 0.0316 µM, first compound 3.16 µM): 114%
viability, T/C (second compound 0.0316 µM, first compound 10 µM): 109%
viability, T/C (second compound 0.1 µM, first compound 0.0316 µM): 97.5%
viability, T/C (second compound 0.1 µM, first compound 0.1 µM): 102%
viability, T/C (second compound 0.1 µM, first compound 0.316 µM): 91.6%
viability, T/C (second compound 0.1 µM, first compound 1 µM): 103%
viability, T/C (second compound 0.1 µM, first compound 3.16 µM): 102%
viability, T/C (second compound 0.1 µM, first compound 10 µM): 99.3%
viability, T/C (second compound 0.316 µM, first compound 0.0316 µM): 80.5%
viability, T/C (second compound 0.316 µM, first compound 0.1 µM): 73.1%
viability, T/C (second compound 0.316 µM, first compound 0.316 µM): 74.2%
viability, T/C (second compound 0.316 µM, first compound 1 µM): 82.5%
viability, T/C (second compound 0.316 µM, first compound 3.16 µM): 85.3%
viability, T/C (second compound 0.316 µM, first compound 10 µM): 77.7%
viability, T/C (second compound 1 µM, first compound 0.0316 µM): 8.05%
viability, T/C (second compound 1 µM, first compound 0.1 µM): 7.07%
viability, T/C (second compound 1 µM, first compound 0.316 µM): 9.28%
viability, T/C (second compound 1 µM, first compound 1 µM): 8.41%
viability, T/C (second compound 1 µM, first compound 3.16 µM): 10.3%
viability, T/C (second compound 1 µM, first compound 10 µM): 6.56%
viability, T/C (second compound 3.16 µM, first compound 0.0316 µM): 1.21%
viability, T/C (second compound 3.16 µM, first compound 0.1 µM): 1.63%
viability, T/C (second compound 3.16 µM, first compound 0.316 µM): 1%
viability, T/C (second compound 3.16 µM, first compound 1 µM): 1.24%
viability, T/C (second compound 3.16 µM, first compound 3.16 µM): 1.69%
viability, T/C (second compound 3.16 µM, first compound 10 µM): 1.89%
viability, T/C (second compound 10 µM, first compound 0.0316 µM): 0.33%
viability, T/C (second compound 10 µM, first compound 0.1 µM): 1.03%
viability, T/C (second compound 10 µM, first compound 0.316 µM): 0.3%
viability, T/C (second compound 10 µM, first compound 1 µM): 0.75%
viability, T/C (second compound 10 µM, first compound 3.16 µM): 0.42%
viability, T/C (second compound 10 µM, first compound 10 µM): 1.33%
